Data taken from ChEMBL document CHEMBL2069290, “Synthesis and biological evaluation of novel oxindole derivatives for imaging neurofibrillary tangles in Alzheimer's disease” (Bioorg Med Chem Lett, 2012).
Activity calls are given as the source filed them. The rule behind the calls is not given here.

Key:
Homo sapiens [1] = organism: Homo sapiens; test: Selectivity ratio of Ki for amyloid beta(1 to 42) to Ki for human Tau
Blood [2] = test: Biodistribution in ddY mouse blood at 3.3 to 6.7 kBq, iv after 2 mins by gamma counting; format: ADME, organism-based; settings: in vivo
Blood [3] = test: Biodistribution in ddY mouse blood at 3.3 to 6.7 kBq, iv after 10 mins by gamma counting; format: ADME, organism-based; settings: in vivo
Blood [4] = test: Biodistribution in ddY mouse blood at 3.3 to 6.7 kBq, iv after 30 mins by gamma counting; format: ADME, organism-based; settings: in vivo, 0.5 h
Blood [5] = test: Biodistribution in ddY mouse blood at 3.3 to 6.7 kBq, iv after 60 mins by gamma counting; format: ADME, organism-based; settings: in vivo, 1 h
Liver [6] = test: Biodistribution in ddY mouse liver at 3.3 to 6.7 kBq, iv after 2 mins by gamma counting; format: ADME, organism-based; settings: in vivo
Liver [7] = test: Biodistribution in ddY mouse liver at 3.3 to 6.7 kBq, iv after 10 mins by gamma counting; format: ADME, organism-based; settings: in vivo
Liver [8] = test: Biodistribution in ddY mouse liver at 3.3 to 6.7 kBq, iv after 30 mins by gamma counting; format: ADME, organism-based; settings: in vivo, 0.5 h
Liver [9] = test: Biodistribution in ddY mouse liver at 3.3 to 6.7 kBq, iv after 60 mins by gamma counting; format: ADME, organism-based; settings: in vivo, 1 h
Kidney [10] = test: Biodistribution in ddY mouse kidney at 3.3 to 6.7 kBq, iv after 2 mins by gamma counting; format: ADME, organism-based; settings: in vivo
Kidney [11] = test: Biodistribution in ddY mouse kidney at 3.3 to 6.7 kBq, iv after 10 mins by gamma counting; format: ADME, organism-based; settings: in vivo
Kidney [12] = test: Biodistribution in ddY mouse kidney at 3.3 to 6.7 kBq, iv after 30 mins by gamma counting; format: ADME, organism-based; settings: in vivo, 0.5 h
Kidney [13] = test: Biodistribution in ddY mouse kidney at 3.3 to 6.7 kBq, iv after 60 mins by gamma counting; format: ADME, organism-based; settings: in vivo, 1 h
Intestine [14] = test: Biodistribution in ddY mouse intestine at 3.3 to 6.7 kBq, iv after 2 mins by gamma counting; format: ADME, organism-based; settings: in vivo
Intestine [15] = test: Biodistribution in ddY mouse intestine at 3.3 to 6.7 kBq, iv after 10 mins by gamma counting; format: ADME, organism-based; settings: in vivo
Intestine [16] = test: Biodistribution in ddY mouse intestine at 3.3 to 6.7 kBq, iv after 30 mins by gamma counting; format: ADME, organism-based; settings: in vivo, 0.5 h
Intestine [17] = test: Biodistribution in ddY mouse intestine at 3.3 to 6.7 kBq, iv after 60 mins by gamma counting; format: ADME, organism-based; settings: in vivo, 1 h
Spleen [18] = test: Biodistribution in ddY mouse spleen at 3.3 to 6.7 kBq, iv after 2 mins by gamma counting; format: ADME, organism-based; settings: in vivo
Spleen [19] = test: Biodistribution in ddY mouse spleen at 3.3 to 6.7 kBq, iv after 10 mins by gamma counting; format: ADME, organism-based; settings: in vivo
Spleen [20] = test: Biodistribution in ddY mouse spleen at 3.3 to 6.7 kBq, iv after 30 mins by gamma counting; format: ADME, organism-based; settings: in vivo, 0.5 h
Spleen [21] = test: Biodistribution in ddY mouse spleen at 3.3 to 6.7 kBq, iv after 60 mins by gamma counting; format: ADME, organism-based; settings: in vivo, 1 h
Pancreas [22] = test: Biodistribution in ddY mouse pancreas at 3.3 to 6.7 kBq, iv after 2 mins by gamma counting; format: ADME, organism-based; settings: in vivo
Pancreas [23] = test: Biodistribution in ddY mouse pancreas at 3.3 to 6.7 kBq, iv after 10 mins by gamma counting; format: ADME, organism-based; settings: in vivo
Pancreas [24] = test: Biodistribution in ddY mouse pancreas at 3.3 to 6.7 kBq, iv after 30 mins by gamma counting; format: ADME, organism-based; settings: in vivo, 0.5 h
Pancreas [25] = test: Biodistribution in ddY mouse pancreas at 3.3 to 6.7 kBq, iv after 60 mins by gamma counting; format: ADME, organism-based; settings: in vivo, 1 h
Heart [26] = test: Biodistribution in ddY mouse heart at 3.3 to 6.7 kBq, iv after 2 mins by gamma counting; format: ADME, organism-based; settings: in vivo
Heart [27] = test: Biodistribution in ddY mouse heart at 3.3 to 6.7 kBq, iv after 10 mins by gamma counting; format: ADME, organism-based; settings: in vivo
Heart [28] = test: Biodistribution in ddY mouse heart at 3.3 to 6.7 kBq, iv after 30 mins by gamma counting; format: ADME, organism-based; settings: in vivo, 0.5 h
Heart [29] = test: Biodistribution in ddY mouse heart at 3.3 to 6.7 kBq, iv after 60 mins by gamma counting; format: ADME, organism-based; settings: in vivo, 1 h
Stomach [30] = test: Biodistribution in ddY mouse stomach assessed per organ at 3.3 to 6.7 kBq, iv after 2 mins by gamma counting; format: ADME, organism-based; settings: in vivo
Stomach [31] = test: Biodistribution in ddY mouse stomach assessed per organ at 3.3 to 6.7 kBq, iv after 10 mins by gamma counting; format: ADME, organism-based; settings: in vivo
Stomach [32] = test: Biodistribution in ddY mouse stomach assessed per organ at 3.3 to 6.7 kBq, iv after 30 mins by gamma counting; format: ADME, organism-based; settings: in vivo, 0.5 h
Stomach [33] = test: Biodistribution in ddY mouse stomach assessed per organ at 3.3 to 6.7 kBq, iv after 60 mins by gamma counting; format: ADME, organism-based; settings: in vivo, 1 h
Brain [34] = test: Biodistribution in ddY mouse brain at 3.3 to 6.7 kBq, iv after 2 mins by gamma counting; format: ADME, organism-based; settings: in vivo
Brain [35] = test: Biodistribution in ddY mouse brain at 3.3 to 6.7 kBq, iv after 10 mins by gamma counting; format: ADME, organism-based; settings: in vivo
Brain [36] = test: Biodistribution in ddY mouse brain at 3.3 to 6.7 kBq, iv after 30 mins by gamma counting; format: ADME, organism-based; settings: in vivo, 0.5 h
Brain [37] = test: Biodistribution in ddY mouse brain at 3.3 to 6.7 kBq, iv after 60 mins by gamma counting; format: ADME, organism-based; settings: in vivo, 1 h
Brain [38] = test: Ratio of drug uptake in ddY mouse brain after 2 mins to drug uptake in ddY mouse brain after 30 mins; format: ADME, tissue-based; settings: in vivo
[39] = target: Microtubule-associated protein tau (Homo sapiens, UniProt P10636); test: Binding affinity to human Tau aggregates after 30 mins by Thioflavin-S-based fluorescence assay
[40] = target: Amyloid-beta precursor protein (Homo sapiens, UniProt P05067); test: Binding affinity to amyloid beta(1 to 42) aggregates after 30 mins by Thioflavin-S-based fluorescence assay
Homo sapiens [41] = organism: Homo sapiens; test: Binding affinity to neurofibrillary tangles in entorhinal cortex of alzheimer disease patient after 10 mins by Thioflavin-S-based fluorescence microscopy; format: tissue-based

Chain of Amyloid-beta precursor protein (P05067 whole entry): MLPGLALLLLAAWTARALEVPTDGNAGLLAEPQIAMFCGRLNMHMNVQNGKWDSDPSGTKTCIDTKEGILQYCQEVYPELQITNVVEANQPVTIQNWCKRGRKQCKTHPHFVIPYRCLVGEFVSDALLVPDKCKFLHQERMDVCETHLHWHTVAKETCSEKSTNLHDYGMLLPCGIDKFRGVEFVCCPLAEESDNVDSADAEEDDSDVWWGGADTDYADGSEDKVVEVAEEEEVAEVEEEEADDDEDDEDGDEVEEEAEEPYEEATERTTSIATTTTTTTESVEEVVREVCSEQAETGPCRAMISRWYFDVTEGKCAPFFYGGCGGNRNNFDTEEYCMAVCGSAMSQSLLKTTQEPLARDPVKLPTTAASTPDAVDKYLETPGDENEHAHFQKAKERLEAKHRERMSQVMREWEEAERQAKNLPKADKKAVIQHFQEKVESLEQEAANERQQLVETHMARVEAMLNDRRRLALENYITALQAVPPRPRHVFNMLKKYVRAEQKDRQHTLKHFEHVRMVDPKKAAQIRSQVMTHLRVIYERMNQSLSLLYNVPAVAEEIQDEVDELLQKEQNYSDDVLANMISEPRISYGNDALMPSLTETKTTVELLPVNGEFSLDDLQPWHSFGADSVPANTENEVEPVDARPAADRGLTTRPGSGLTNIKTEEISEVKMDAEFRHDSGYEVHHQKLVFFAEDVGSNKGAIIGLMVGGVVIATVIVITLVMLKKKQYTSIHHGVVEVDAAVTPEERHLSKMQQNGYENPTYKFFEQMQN
Chain of Microtubule-associated protein tau (P10636 whole entry): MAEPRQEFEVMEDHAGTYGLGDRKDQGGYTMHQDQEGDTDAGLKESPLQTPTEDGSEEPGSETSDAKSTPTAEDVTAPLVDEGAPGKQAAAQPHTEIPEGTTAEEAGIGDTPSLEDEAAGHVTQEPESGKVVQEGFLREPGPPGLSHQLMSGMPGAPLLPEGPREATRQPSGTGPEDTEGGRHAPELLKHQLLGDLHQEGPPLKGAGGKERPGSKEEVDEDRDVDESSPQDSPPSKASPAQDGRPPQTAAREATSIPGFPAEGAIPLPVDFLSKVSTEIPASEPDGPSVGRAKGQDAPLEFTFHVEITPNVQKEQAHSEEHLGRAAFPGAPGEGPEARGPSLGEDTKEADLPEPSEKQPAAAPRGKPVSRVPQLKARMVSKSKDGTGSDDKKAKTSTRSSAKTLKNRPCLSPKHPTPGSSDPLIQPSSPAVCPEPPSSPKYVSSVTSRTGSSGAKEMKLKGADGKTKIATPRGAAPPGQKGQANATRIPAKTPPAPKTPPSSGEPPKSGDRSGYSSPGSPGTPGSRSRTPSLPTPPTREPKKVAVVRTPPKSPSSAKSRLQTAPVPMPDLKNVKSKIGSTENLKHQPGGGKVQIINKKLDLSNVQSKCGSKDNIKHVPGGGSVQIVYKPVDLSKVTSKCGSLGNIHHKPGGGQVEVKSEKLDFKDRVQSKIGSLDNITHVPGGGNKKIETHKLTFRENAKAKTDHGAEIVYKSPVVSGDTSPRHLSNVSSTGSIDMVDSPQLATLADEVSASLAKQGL

## O=C1/C(=C/c2ccc(-c3cccc(I)c3)o2)NC(=S)N1CCc1c[nH]cn1
Homo sapiens [1]
  Ratio Ki: 7.33

## CN(C)c1ccc(/C=C2\Nc3ccc([125I])cc3C2=O)cc1
Blood [2]
  Drug uptake: 4.7 % ID/g
Blood [3]
  Drug uptake: 3.76 % ID/g
Blood [4]
  Drug uptake: 2.06 % ID/g
Blood [5]
  Drug uptake: 2.23 % ID/g
Liver [6]
  Drug uptake: 9.81 % ID/g
Liver [7]
  Drug uptake: 11.29 % ID/g
Liver [8]
  Drug uptake: 9.85 % ID/g
Liver [9]
  Drug uptake: 8.9 % ID/g
Kidney [10]
  Drug uptake: 11.93 % ID/g
Kidney [11]
  Drug uptake: 16.57 % ID/g
Kidney [12]
  Drug uptake: 11.38 % ID/g
Kidney [13]
  Drug uptake: 7.55 % ID/g
Intestine [14]
  Drug uptake: 2.13 % ID/g
Intestine [15]
  Drug uptake: 3.17 % ID/g
Intestine [16]
  Drug uptake: 7.05 % ID/g
Intestine [17]
  Drug uptake: 10.7 % ID/g
Spleen [18]
  Drug uptake: 3.2 % ID/g
Spleen [19]
  Drug uptake: 4.46 % ID/g
Spleen [20]
  Drug uptake: 4.08 % ID/g
Spleen [21]
  Drug uptake: 2.17 % ID/g
Pancreas [22]
  Drug uptake: 4.4 % ID/g
Pancreas [23]
  Drug uptake: 2.54 % ID/g
Pancreas [24]
  Drug uptake: 1.39 % ID/g
Pancreas [25]
  Drug uptake: 0.94 % ID/g
Heart [26]
  Drug uptake: 7.94 % ID/g
Heart [27]
  Drug uptake: 3.42 % ID/g
Heart [28]
  Drug uptake: 2.23 % ID/g
Heart [29]
  Drug uptake: 2.11 % ID/g
Stomach [30]
  Drug uptake: 0.96 %ID
Stomach [31]
  Drug uptake: 1.67 %ID
Stomach [32]
  Drug uptake: 2.1 %ID
Stomach [33]
  Drug uptake: 3.8 %ID
Brain [34]
  Drug uptake: 2.52 % ID/g
Brain [35]
  Drug uptake: 1.4 % ID/g
Brain [36]
  Drug uptake: 0.63 % ID/g
Brain [37]
  Drug uptake: 0.36 % ID/g
Brain [38]
  Ratio: 4

## CN(C)c1ccc(C=C2C(=O)Nc3ccc([125I])cc32)cc1
Blood [2]
  Drug uptake: 1.77 % ID/g
Blood [3]
  Drug uptake: 1.64 % ID/g
Blood [4]
  Drug uptake: 1.07 % ID/g
Blood [5]
  Drug uptake: 0.69 % ID/g
Liver [6]
  Drug uptake: 12.37 % ID/g
Liver [7]
  Drug uptake: 10.56 % ID/g
Liver [8]
  Drug uptake: 9.43 % ID/g
Liver [9]
  Drug uptake: 6.89 % ID/g
Kidney [10]
  Drug uptake: 9.63 % ID/g
Kidney [11]
  Drug uptake: 5.04 % ID/g
Kidney [12]
  Drug uptake: 3.83 % ID/g
Kidney [13]
  Drug uptake: 2.51 % ID/g
Intestine [14]
  Drug uptake: 1.57 % ID/g
Intestine [15]
  Drug uptake: 2.54 % ID/g
Intestine [16]
  Drug uptake: 8.33 % ID/g
Intestine [17]
  Drug uptake: 12.11 % ID/g
Spleen [18]
  Drug uptake: 3.66 % ID/g
Spleen [19]
  Drug uptake: 3.37 % ID/g
Spleen [20]
  Drug uptake: 1.2 % ID/g
Spleen [21]
  Drug uptake: 0.66 % ID/g
Pancreas [22]
  Drug uptake: 5.08 % ID/g
Pancreas [23]
  Drug uptake: 3.19 % ID/g
Pancreas [24]
  Drug uptake: 1.76 % ID/g
Pancreas [25]
  Drug uptake: 0.6 % ID/g
Heart [26]
  Drug uptake: 10.17 % ID/g
Heart [27]
  Drug uptake: 2.53 % ID/g
Heart [28]
  Drug uptake: 1.3 % ID/g
Heart [29]
  Drug uptake: 0.61 % ID/g
Stomach [30]
  Drug uptake: 0.91 %ID
Stomach [31]
  Drug uptake: 1.64 %ID
Stomach [32]
  Drug uptake: 3.52 %ID
Stomach [33]
  Drug uptake: 3.57 %ID
Brain [34]
  Drug uptake: 2.47 % ID/g
Brain [35]
  Drug uptake: 2.1 % ID/g
Brain [36]
  Drug uptake: 1.43 % ID/g
Brain [37]
  Drug uptake: 0.44 % ID/g
Brain [38]
  Ratio: 1.7

## CNc1ccc(/C=C2\Nc3ccc(I)cc3C2=O)cc1
[39]
  Ki: 112 nM
[40]
  Ki: 116 nM
Homo sapiens [1]
  Ratio Ki: 1.03

## [11CH3]Nc1ccc(-c2ccc3ccccc3n2)cc1
Brain [38]
  Ratio: 3.65

## CN(C)c1ccc(/C=C2\Nc3ccc(I)cc3C2=O)cc1
[39]
  Ki: 17 nM
[40]
  Ki: 31 nM
Homo sapiens [1]
  Ratio Ki: 1.77
Homo sapiens [41]
  Activity: Active

## Nc1ccc(-c2ccc3cc(OCC[18F])ccc3n2)cc1
Brain [38]
  Ratio: < 2
